Data on one molecule can be found in PMC6934184, “Selective DNA-PKcs inhibition extends the therapeutic index of localized radiotherapy and chemotherapy” (The Journal of Clinical Investigation, 2019).

This assay deals with T1, YES1 (Homo sapiens, UniProt P07947).
T1 construct: purchased Thermo Fisher Scientific (Life Technologies) SelectScreen
The assay can be described thus: SelectScreen Z'LYTE. In kind it is biochemical. A digest of the protocol:
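NU5455 was profiled across the SelectScreen Broad panel of kinase activity and binding assays. Z'LYTE reactions such as CSF1R ran at apparent Km ATP, while the Adapta CAMK1 assay used ATP listed as 10. Values are given as percent.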

The structures appear in SMILES notation.

T1 sequence (P07947 whole entry): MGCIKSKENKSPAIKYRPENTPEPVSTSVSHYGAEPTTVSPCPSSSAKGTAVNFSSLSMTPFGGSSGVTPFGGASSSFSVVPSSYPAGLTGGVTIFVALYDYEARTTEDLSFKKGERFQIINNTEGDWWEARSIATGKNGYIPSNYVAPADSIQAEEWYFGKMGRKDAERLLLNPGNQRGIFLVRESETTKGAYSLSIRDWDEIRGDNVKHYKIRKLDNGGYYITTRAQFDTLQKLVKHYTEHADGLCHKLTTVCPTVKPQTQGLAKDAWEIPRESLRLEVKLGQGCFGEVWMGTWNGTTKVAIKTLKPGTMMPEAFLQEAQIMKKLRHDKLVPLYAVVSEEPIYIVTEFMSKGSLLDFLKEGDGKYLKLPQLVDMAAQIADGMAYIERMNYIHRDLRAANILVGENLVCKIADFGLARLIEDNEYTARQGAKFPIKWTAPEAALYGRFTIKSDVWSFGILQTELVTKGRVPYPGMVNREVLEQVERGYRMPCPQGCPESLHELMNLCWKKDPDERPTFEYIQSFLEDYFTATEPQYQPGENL

Turning to `CN(C(=O)CN1CCOCC1)c1ccc2sc3c(-c4cccc5c(=O)cc(N6CC7CCC(C6)O7)oc45)cccc3c2c1` [NU5455], at 1 µM the inhibition was 7.4%.

By inhibition is commonly meant the change of the read-out against control, counted positive when it falls. A high value points to a response far below the control.
